Test results from patent publication US8735406B2, “8-oxodihydropurine derivative” (Dainippon Sumitomo Pharma Co., Ltd., priority 2009, dated 2014).
Like-named read-outs stand apart in the source and are kept apart here.

Biological target: T1, FAAH (Rattus norvegicus, UniProt P97612)
T1 construct: Preparation of Rat Brain Membranes Preparations (FAAH Enzyme Solution); from tissue; host or cells: rat cerebrum (brain membrane preparation)
T1 sequence (P97612 1-579): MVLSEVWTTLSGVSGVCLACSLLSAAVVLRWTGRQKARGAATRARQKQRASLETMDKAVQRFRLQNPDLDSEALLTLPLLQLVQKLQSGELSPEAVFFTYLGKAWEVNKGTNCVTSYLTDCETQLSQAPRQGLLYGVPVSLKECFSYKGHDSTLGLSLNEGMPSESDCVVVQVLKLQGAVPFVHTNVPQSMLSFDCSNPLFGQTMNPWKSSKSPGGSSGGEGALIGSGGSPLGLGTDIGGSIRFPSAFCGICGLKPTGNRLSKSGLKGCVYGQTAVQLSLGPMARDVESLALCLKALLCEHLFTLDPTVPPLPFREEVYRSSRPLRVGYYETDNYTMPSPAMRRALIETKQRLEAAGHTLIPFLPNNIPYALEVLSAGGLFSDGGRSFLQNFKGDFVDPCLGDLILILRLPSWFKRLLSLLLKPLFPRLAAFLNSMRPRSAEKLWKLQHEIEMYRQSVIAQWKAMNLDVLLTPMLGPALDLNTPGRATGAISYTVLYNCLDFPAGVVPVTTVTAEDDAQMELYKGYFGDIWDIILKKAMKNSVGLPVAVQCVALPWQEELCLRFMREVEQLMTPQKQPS
Experiment: Determination of FAAH inhibitory activity in rat (rat brain membrane preparations, [3H]-anandamide hydrolysis)
Type: biochemical
Details: rat brain membrane preparations; for IC50: read-out: FAAH Inhibition IC50
Summary of the method: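 Compounds tested from 0.1 nM to 1 μM to derive IC50 against FAAH hydrolysis in rat brain membrane preparations (100 μg/mL). A 10-min 37 °C preincubation was followed by 10 min with [3H]-anandamide (2 nM) mixed with 2 μM unlabelled anandamide. Radioactive ethanolamine was extracted into the water/methanol layer and counted.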

[1] = 100 nM test substance, read-out: FAAH Inhibition, Inhibition Rate at 100 nM
[2] = at 100 nM, read-out: FAAH Inhibition Inhibition Rate at 100 nM

Row | SMILES | inhibition at 0.1 µM [1] [%] | IC50 (test substance 0.1 nM to 1 μM) [nM] | inhibition at 0.1 µM [2] [%] | IC50 [nM]
1 | Cc1cccc(CCc2ncc3c(n2)n(C(=O)N(C)C)c(=O)n3C)c1 [compound 498] | 93 | 24 | – | –
2 | CCN(C)C(=O)n1c(=O)n(C)c2nc(Cc3cccc(F)c3)ncc21 [Example 284, N-Ethyl-2-(3-fluorobenzyl)-N,9-dimethyl-8-oxo-8,9-dihydro-7H-purine-7-carboxamide] | 100 | 3 | – | –
3 | COc1cccc(-c2ncc3c(n2)n(C)c(=O)n3C(=O)N(C)CCc2ccncc2)c1 [Example 115, 2-(3-Methoxyphenyl)-N,9-dimethyl-8-oxo-N-[2-(pyridin-4-yl)ethyl]-8,9-dihydro-7H-purine-7-carboxamide] | 103 | 5 | – | –
4 | CN(C)c1ccc(-c2ncc3c(n2)n(C)c(=O)n3C(=O)N2CCCC2)cc1 [Example 182, 2-[4-(Dimethylamino)phenyl]-9-methyl-7-(pyrrolidin-1-ylcarbonyl)-7,9-dihydro-8H-purine-8-one] | 100 | 28 | – | –
5 | COc1cccc(CCc2ncc3c(n2)n(C(=O)N(C)C)c(=O)n3C)c1 [compound 543] | 70 | 67 | – | –
6 | CCOc1ccc(-c2ncc3c(n2)n(C(=O)N2CCCC2)c(=O)n3C)cc1 [Example 233, 2-(4-Ethoxyphenyl)-7-methyl-9-(pyrrolidin-1-ylcarbonyl)-7,9-dihydro-8H-purine-8-one] | 97 | 40 | – | –
7 | Cn1c(=O)n(C(=O)N2CCC2)c2nc(CCc3cc(F)cc(F)c3)ncc21 [Example 580, 9-(Azetidin-1-ylcarbonyl)-2-[2-(3,5-difluorophenyl)ethyl]-7-methyl-7,9-dihydro-8H-purine-8-one] | 81 | 25 | – | –
8 | CN(C)C(=O)n1c(=O)n(C)c2cnc(CCc3cccc(OCC4CC4)c3)nc21 [compound 519] | 84 | 6 | – | –
9 | Cn1c(=O)n(C(=O)N2CCC2)c2nc(CCc3ccc(C(F)(F)F)cc3)ncc21 [compound 597] | 92 | 10 | – | –
10 | Cn1c(=O)n(C(=O)N2CCC2)c2cnc(COc3cccc(OC(F)(F)F)c3)nc21 [compound 412] | 56 | 78 | – | –
11 | CN(C)C(=O)n1c(=O)n(C)c2cnc(CCOc3cccc(F)c3)nc21 [compound 639] | – | – | 76 | 27
12 | CCCc1ccc(CCc2ncc3c(n2)n(C(=O)N(C)C)c(=O)n3C)cc1 [compound 500] | 104 | 10 | – | –
13 | CN(CCOc1ccc(Cl)cc1)C(=O)n1c(=O)n(C)c2nc(-c3cccnc3)ncc21 [Example 146, N-[2-(4-Chlorophenoxy)ethyl]-N,9-dimethyl-8-oxo-2-(pyridin-3-yl)-8,9-dihydro-7H-purine-7-carboxamide] | 99 | < 1 | – | –
14 | CCN(C)C(=O)n1c(=O)n(C)c2cnc(-c3cccc(C)c3)nc21 [compound 340] | 71 | 50 | – | –
15 | CCc1ncc2c(n1)n(C(=O)N1CC(c3ccccc3)C1)c(=O)n2C [Example 634] | – | – | 95 | 98
16 | CCc1ncc2c(n1)n(C)c(=O)n2C(=O)N1CC(c2ccc(F)cc2)C1 [compound 628] | – | – | 90 | 10
17 | Cn1c(=O)n(C(=O)N2CCCC2)c2nc(/C=C/c3ccc(C(F)(F)F)cc3)ncc21 [Example 243, 7-methyl-9-(pyrrolidin-1-ylcarbonyl)-2-{(E)-2-[4-(trifluoromethyl)phenyl]ethenyl}-7,9-dihydro-8H-purine-8-one] | 89 | 5 | – | –
18 | COCc1ncc2c(n1)n(C)c(=O)n2C(=O)N1CC(c2cccc(C)c2)C1 [compound 444] | 69 | 62 | – | –

Row | SMILES | inhibition at 0.1 µM [1] [%] | IC50 (test substance 0.1 nM to 1 μM) [nM] | inhibition at 0.1 µM [2] [%] | IC50 [nM]
19 | Cn1c(=O)n(C(=O)N2CCCC2)c2cnc(C3=CCCCC3)nc21 [Example 218, 2-(cyclohexen-1-yl)-9-methyl-7-(pyrrolidin-1-ylcarbonyl)-7,9-dihydro-8H-purine-8-one] | 95 | 25 | – | –
20 | CCOc1cccc(C2CN(C(=O)n3c(=O)n(C)c4nc(COC)ncc43)C2)c1 [compound 451] | 95 | 12 | – | –
21 | Cn1c(=O)n(C(=O)N2CCC(CCc3ccc(Cl)cc3)CC2)c2cnc(-c3cccnc3)nc21 [Example 147, 7-({4-[2-(4-Chlorophenyl)ethyl]piperidin-1-yl}carbonyl)-9-methyl-2-(pyridin-3-yl)-7,9-dihydro-8H-purine-8-one] | 96 | < 1 | – | –
22 | CCN(C)C(=O)n1c(=O)n(C)c2nc(Cc3ccccc3)ncc21 [Example 278, 2-Benzyl-N-ethyl-N,9-dimethyl-8-oxo-8,9-dihydro-7H-purine-7-carboxamide] | 99 | 8 | – | –
23 | Cn1c(=O)n(C(=O)N2CCCC2)c2cnc(-c3cccnc3F)nc21 [compound 209] | 103 | 24 | – | –
24 | COCc1ncc2c(n1)n(C)c(=O)n2C(=O)N1CC[C@@H](Oc2ccccc2F)C1 [Example 474] | 71 | 54 | – | –
25 | Cn1c(=O)n(C(=O)N2CCCC2)c2nc(/C=C/c3ccc(F)cc3)ncc21 [Example 245, 2-[(E)-2-(4-Fluorophenyl)ethenyl]-7-methyl-9-(pyrrolidin-1-ylcarbonyl)-7,9-dihydro-8H-purine-8-one] | 80 | 58 | – | –
26 | Cn1c(=O)n(C(=O)N2CCCC2)c2cnc(-c3cccc(N)c3)nc21 [Example 317, 2-(3-aminophenyl)-9-methyl-7-(pyrrolidin-1-ylcarbonyl)-7,9-dihydro-8H-purine-8-one] | 103 | < 10 | – | –
27 | CC(=O)c1cccc(-c2ncc3c(n2)n(C)c(=O)n3C(=O)N2CCCC2)c1 [compound 186] | 102 | 7 | – | –
28 | Cn1c(=O)n(C(=O)N2CCCC2)c2cnc(-c3cccc(Cl)c3)nc21 [Example 17] | 101 | 8 | – | –
29 | COC(=O)CN(C)C(=O)n1c(=O)n(C)c2nc(-c3ccccc3)ncc21 [Example 38] | 73 | 76 | – | –
30 | Cn1c(=O)n(C(=O)N2CCC2)c2nc(COc3ccccc3)ncc21 [Example 415] | 41 | 148 | – | –
31 | COc1cccc(-c2ncc3c(n2)n(C)c(=O)n3C(=O)N2CCC(CCc3ccc(Cl)cc3)CC2)c1 [Example 68, 7-({4-[2-(4-Chlorophenyl)ethyl]piperidin-1-yl}carbonyl)-2-(3-methoxyphenyl)-9-methyl-7,9-dihydro-8H-purine-8-one] | 98 | 6 | – | –
32 | CN(C)C(=O)n1c(=O)n(C)c2cnc(CCc3cccc(C4CC4)c3)nc21 [compound 517] | 98 | 10 | – | –
33 | CCCCOc1ccc(-c2ncc3c(n2)n(C(=O)N2CCC2)c(=O)n3C)cc1 [compound 349] | 103 | 10 | – | –
34 | COCc1ncc2c(n1)n(C)c(=O)n2C(=O)N1CC(c2cccc(Cl)c2)C1 [compound 447] | 131 | 1 | – | –
35 | CN(C(=O)n1c(=O)n(C)c2nc(-c3ccccc3)ncc21)c1ccccc1 [Example 27] | 76 | 63 | – | –
